Assay results from US10517869B2 (SENTISS PHARMA PRIVATE LIMITED, priority 2013, dated 2019).
Read-outs that look alike come from different tables or passages of the source.

Key:
[1] = at a pH of 6.4
[2] = Compatibility of quaternary ammonium preservative with brimonidine (precipitation); assay type: physicochemical; settings: pH of around 6.0
From the text: Benzododecinium bromide forms an ion pair with brimonidine, thereby neutralizing the charge of brimonidine.
Benzododecinium halide (e.g., bromide) forms an ion pair with brimonidine, thereby neutralizing the charge of brimonidine. […] Thus it was surprising to find that benzododecinium halide is compatible with brimonidine.

[3] = cited from earlier work

Question: With `Brc1c(NC2=NCCN2)ccc2nccnc12` [Brimonidine] as the molecule, how does the ionized [1] read?
Answer: about 90%

Question: For `CCCCCCCCCCCC[N+](C)(C)Cc1ccccc1.[Br-]` [benzododecinium bromide], which precipitation with brimonidine [2] is on record?
Answer: does not form a precipitation with brimonidine

Question: For benzalkonium chloride, which precipitation with brimonidine [2] is on record?
Answer: forms a hazy solution

Question: With brimonidine tartrate as the molecule, how does the Solubility ([3]; Study 1, pH 5.55) read?
Answer: ≥164.4

Question: What about the Solubility ([3]; Study 1, pH 5.92) of the same molecule?
Answer: 132.6

Question: And the Solubility ([3]; Study 1, pH 6.14)?
Answer: 30.4

Question: And the Solubility ([3]; Study 1, pH 6.57)?
Answer: 7.55

Question: What about the Solubility ([3]; Study 1, pH 7) of the same molecule?
Answer: 2.69

Question: What about the Solubility ([3]; Study 1, pH 7.45) of the same molecule?
Answer: 1.17

Question: What about the Solubility ([3]; Study 1, pH 7.83) of the same molecule?
Answer: 0.62

Question: And the Solubility ([3]; Study 2, pH 5.5)?
Answer: ≥200.6

Question: And the Solubility ([3]; Study 2, pH 5.92)?
Answer: 160.8

Question: And the Solubility ([3]; Study 2, pH 6.06)?
Answer: 50.1

Question: What about the Solubility ([3]; Study 2, pH 6.9) of the same molecule?
Answer: 3.19

Question: What about the Solubility ([3]; Study 2, pH 7.4) of the same molecule?
Answer: 1.19

Question: What about the Solubility ([3]; Study 2, pH 7.77) of the same molecule?
Answer: 0.63

Question: And the Solubility ([3]; Study 2, pH 7.86)?
Answer: 0.58

Question: And the Solubility ([3]; Study 2, pH 7.88)?
Answer: 0.54
